Results taken from US9957257B2, “Amide compounds as 5-HT4 receptor agonists” (SUVEN LIFE SCIENCES LIMITED, priority 2015, dated 2018).

Legend:
sAPPα = assay: Estimation of mice brain cortical sAPPα levels (ELISA); assay type: in vivo, Male C57BL/6J mice; conditions: 1 mg/kg, s.c., 60 minutes post treatment
Procedure: 3. The supernatant was discarded and to the precipitate, 4 times volume (0.8 mL/200 mg tissues) of TBS was added.
4. From the above centrifuged mixture the supernatant was discarded and 10 times volume of 6M Guanidine-HCl in 50 mM Tris buffer pH: 7.6 (500 μL/50 mg tissues) was added.
5. […] From this 5 μL of supernatant solution was taken and diluted with 155 μL of EIA buffer (dilution factor 32).
The entire procedure was followed as described in the ELISA kit manual (Mouse/Rat sAPPα ELISA, Catalog Number: JP27415, Innovation Beyond Limits International, Hamburg, Germany).
Statistical analyses were performed using the Graph Pad Prism (Version 4).

[1] = Object recognition task model; assay type: in vivo, Male Wistar rats; conditions: 0.1 mg/kg, p.o.
Procedure: The cognition enhancing properties of compounds of this invention were estimated by using this model.
Male Wistar rats (230-280 grams) were used as experimental animals. Four animals were housed in each cage. Animals were kept on 20% food deprivation before one day and given water ad libitum throughout the experiment and maintained on a 12 hours light/dark cycle. Also the rats were habituated to individual arenas for 1 hour in the absence of any objects.
One group of 12 rats received vehicle (1 mL/Kg) orally and another set of animals received compound of the formula (I) either orally or i.p., before one hour of the familiar (T1) and choice trial (T2).
The experiment was carried out in a 50×50×50 cm open field made up of acrylic. In the familiarization phase, (T1), the rats were placed individually in the open field for 3 minutes, in which two identical objects (plastic bottles, 12.5 cm height×5.5 cm diameter) covered in yellow masking tape alone (a1 and a2) were positioned in two adjacent corners, 10 cms from the walls. After 24 hours of the (T1) trial for long-term memory test, the same rats were placed in the same arena as they were placed in T1 trial. Choice phase (T2) rats were allowed to explore the open field for 3 minutes in presence of one familiar object (a3) and one novel object (b) (Amber color glass bottle, 12 cm high and 5 cm in diameter). Familiar objects presented similar textures, colors and sizes. During the T1 and T2 trial, explorations of each object (defined as sniffing, licking, chewing or having moving vibrissae whilst directing the nose towards the object at a distance of less than 1 cm) were recorded separately by stopwatch. Sitting on an object was not regarded as exploratory activity, however, it was rarely observed.
T1 is the total time spent exploring the familiar objects (a1+a2).
T2 is the total time spent exploring the familiar object and novel object (a3+b).
The object recognition test was performed as described by Behaviour Brain Research, 31 (1988), 47-59.

Radial arm maze = assay type: in vivo, rats; conditions: p.o.
Text: The cognition enhancing properties of test compounds of this invention were estimated by using this model.
Radial arm maze consists of a central hub of 45 cm diameter. Each arm was of dimension 42.5×15×24 cm. The maze was elevated to a height of 1 m above the ground. The animals were placed on a restricted diet until they reached approximately 85% of their free feeding weight. During this diet restriction period animals were habituated to the novel feed (pellets). Once the rats reached approximately 85% of their free feeding weight, rats were habituated to the maze on the 1st and 2nd day. […] Animals were randomized on day 2. On the subsequent days the treatment was given as per the allotment. Each animal was introduced into the maze individually for a period of 10 minutes. The arms were baited only once and the animal had to learn the rule that repeated arm entries would not be rewarded. The trial ended once the rat had visited 16 arms or 10 minutes were over or all the pellets were eaten. The arm entries were recorded using the software. Once the trial was over the rat was removed and the maze was cleaned using soap water.

CC(C)(O)CN1CCC(F)(CNC(=O)c2cc(Cl)c(N)c3ccoc23)CC1 [Example 50, 4-Amino-5-chloro-N-{[4-fluoro-1-(2-hydroxy-2-methylpropyl)-4-piperidinyl]methyl}benzofuran-7-carboxamide L(+)-tartarate]
increase in mice brain cortical sAPPα levels (sAPPα): 44% | Exploration time mean ± S.E.M, Familiar object [1]: 9.89 ± 1.49 s | Exploration time mean ± S.E.M, Novel object [1]: 18.58 ± 2.44 s | Inference [1]: Active | Reversal of Scopolamine Induced amnesia - Effective dose range (Radial arm maze): 1 mg/kg, p.o.
